We go through 35 molecules from article PMC3589648, “2D- and 3D-QSAR studies of a series of benzopyranes and benzopyrano[3,4b][1,4]-oxazines as inhibitors of the multidrug transporter P-glycoprotein” (Journal of Computer-Aided Molecular Design, 2013).

The target in the series is T1, P-glycoprotein (P-gp) (Homo sapiens, UniProt P08183).
T1 construct: The resistant CEM/vcr1000 line was obtained by stepwise selection in vincristine containing medium; endogenous in cells; host or cells: CCRF-CEM vcr1000 (CEM/vcr1000), a human T-lymphoblast line made multidrug resistant by vincristine selection
T1 sequence (P08183 whole entry): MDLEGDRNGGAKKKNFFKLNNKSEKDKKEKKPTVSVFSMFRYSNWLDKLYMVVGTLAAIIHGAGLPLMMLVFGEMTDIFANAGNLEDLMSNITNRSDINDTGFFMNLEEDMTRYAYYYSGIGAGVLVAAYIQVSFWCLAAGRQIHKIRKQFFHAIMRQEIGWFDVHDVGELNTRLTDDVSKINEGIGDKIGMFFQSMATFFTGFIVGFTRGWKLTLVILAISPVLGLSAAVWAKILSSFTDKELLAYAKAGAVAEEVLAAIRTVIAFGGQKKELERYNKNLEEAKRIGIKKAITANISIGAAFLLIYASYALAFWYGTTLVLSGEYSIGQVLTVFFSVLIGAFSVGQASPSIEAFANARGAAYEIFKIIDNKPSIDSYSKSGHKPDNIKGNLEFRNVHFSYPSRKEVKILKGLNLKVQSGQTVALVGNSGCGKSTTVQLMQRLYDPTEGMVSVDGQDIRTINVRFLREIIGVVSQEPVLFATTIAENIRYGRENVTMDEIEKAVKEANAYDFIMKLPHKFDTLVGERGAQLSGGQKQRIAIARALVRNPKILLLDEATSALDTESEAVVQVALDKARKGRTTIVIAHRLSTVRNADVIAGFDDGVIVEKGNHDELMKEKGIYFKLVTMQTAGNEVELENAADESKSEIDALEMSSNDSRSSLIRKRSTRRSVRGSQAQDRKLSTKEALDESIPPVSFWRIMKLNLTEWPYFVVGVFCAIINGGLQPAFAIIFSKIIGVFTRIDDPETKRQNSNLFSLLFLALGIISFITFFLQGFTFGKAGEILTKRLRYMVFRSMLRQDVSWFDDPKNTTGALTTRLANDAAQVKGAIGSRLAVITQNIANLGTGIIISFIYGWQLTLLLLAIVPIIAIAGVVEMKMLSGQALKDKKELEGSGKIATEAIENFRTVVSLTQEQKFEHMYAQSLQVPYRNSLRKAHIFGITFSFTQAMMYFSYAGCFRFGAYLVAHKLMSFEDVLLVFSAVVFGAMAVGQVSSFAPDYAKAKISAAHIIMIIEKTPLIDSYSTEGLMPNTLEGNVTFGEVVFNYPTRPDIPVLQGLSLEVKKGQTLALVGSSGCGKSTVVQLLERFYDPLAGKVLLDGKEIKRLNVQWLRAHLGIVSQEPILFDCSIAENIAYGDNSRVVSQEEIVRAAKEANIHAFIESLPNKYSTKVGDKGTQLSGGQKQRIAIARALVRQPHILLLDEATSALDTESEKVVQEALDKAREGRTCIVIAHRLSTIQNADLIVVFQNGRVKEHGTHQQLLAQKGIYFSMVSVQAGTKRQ
In words: Daunorubicin efflux inhibition in multidrug resistant CCRF-CEM vcr1000 cells. To be noted: for factor more active than corresponding unsubstituted analogs 6a and 6b: N-methylated L-valine analogues versus secondary amines. It is filed as cell-based. On the procedure: Biological activity of target compounds 5a–22b was assessed using the daunorubicin efflux protocol as described previously. Briefly, multidrug resistant CCRF-CEM vcr 1,000 cells were incubated with daunorubicin and the decrease in mean cellular fluorescence in dependence of time was measured in presence of various concentrations of the modulator. IC50 values were calculated from the concentration–response curve of efflux V max /K m versus concentration of the modulator. Thus, the effect of different modulators on the transport rate is measured in a direct functional assay. Values are given in Table 1 and are the mean of at least three independently performed experiments. Generally, inter experimental variation was below 20 %.
The human T-lymphoblast cell line CCRF-CEM and the multidrug resistant CEM/vcr1000 cell line were provided by V. Gekeler (Byk Gulden, Konstanz, Germany). The resistant CEM/vcr1000 line was obtained by stepwise selection in vincristine containing medium. Cells were kept under standard culture conditions (RPMI1640 medium supplemented with 10% fetal calf serum). P-gp-expressing resistant cell line was cultured in presence of 1000 ng/mL vincristine. One week prior to the experiments cells were transferred into medium without selective agents or antibiotics. Briefly, cells were pelleted, the supernatant was removed by aspiration and cells were resuspended at a density of 1 x 10^6/ mL in PRMI1640 medium containing 3µmol/l daunomycin. Cell suspensions were incubated at 37°C for 30 min. After this time a steady state of daunorubicin accumulation was reached. Tubes were chilled on ice and cells were pelleted at 500 x g. Cells were washed once in RPMI1640 medium to remove extracellular daunorubicin. […] Generally, 8 serial dilutions were tested for each modulator. After 1, 2, 3 and 4 min aliquots of the incubation mixture were drawn and pipetted into 4 volumes of ice cold stop solution (RPMI1640 medium containing verapamil at a final concentration of 100 µM). Parental CCRF-CEM cells were used to correct for simple membrane diffusion, which was less than 3% of the efflux rates observed in resistant cells. Samples drawn at the respective time points were kept in an ice water bath and measured within one hour on a Becton Dickinson FACS Calibur (Becton Dickinson, Heidelberg, Germany) flow cytometer as described. Dose response curves were fitted to the data points using non-linear least squares and IC50 values were calculated as described by Chiba et al. […] A CV of below 20% was obtained in all determinations.

Where [1] appears, read: SM Table 2, logarithm of the measured IC50 (μM) of Table 1.
Where [2] appears, read: inhibition of P-gp mediated daunorubicin efflux, CCRF-CEM vcr1000 cells, mean of at least three experiments, read-out: IC50 μM ± SD.
The mark [3] stands for this setting: SM Table 2, logarithm of the measured IC50 (μM) of Table 1, read-out: Exp. LogIC50 (converted).

Where two headings read alike, the source gives them in different places.

For `C[C@@H]1N[C@@H]2c3cc(C#N)ccc3OC(C)(C)[C@H]2OC1=O` [12a], the “Exp. LogIC50” value under setting [1] is -3.09. The IC50 under setting [2] was determined as 1241.6 ± 0.04 µM. Besides, under “ratio of P-gp inhibitory potency (IC50), 12a versus 12b”, the “factor less active than diastereomeric 4aR,10bS analogue 12b” value was 15.

Turning to `CC(C)[C@@H]1N[C@H]2c3cc(C#N)ccc3OC(C)(C)[C@@H]2OC1=O` [13b], the “Exp. LogIC50” value under setting [1] is -1.77. In addition, the IC50 under setting [2] stood at 59.3 ± 0.6 µM.

As for `CC(C)[C@@H](CCl)N(C)[C@@H]1c2cc(C#N)ccc2OC(C)(C)[C@H]1O` [22a], the “Exp. LogIC50” value under setting [1] is recorded as -1.55. In addition, the IC50 under setting [2] amounted to 35.22 ± 0.02 µM.

Regarding `CC(C)[C@@H]1N[C@@H]2c3cc(C#N)ccc3OC(C)(C)[C@H]2OC1=O` [13a], the “Exp. LogIC50” value under setting [1] is -1.18. For the same molecule, the IC50 under setting [2] was 15.3 ± 0.32 µM.

As to `CC(C)[C@H]1CO[C@H]2[C@H](N1)c1cc(C#N)ccc1OC2(C)C` [21a, (2S,4aS,10bR)-2-isopropyl-5,5-dimethyl-1,4a,5,10b-tetrahydro-3H [1]benzopyrano[3,4-b][1,4]oxazine-9-carbonitril], the IC50 was 49 µM under setting [3] and 48.8 ± 0.09 µM under setting [2].

`C[C@@H](C(=O)OC(C)(C)C)N(C)[C@H]1c2cc(C#N)ccc2OC(C)(C)[C@@H]1O` [8b]: under setting [1], the “Exp. LogIC50” value is -0.57. The IC50 under setting [2] was 3.72 ± 0.03 µM.

Turning to `CC(C)[C@H](N[C@@H]1c2cc(C#N)ccc2OC(C)(C)[C@H]1O)C(=O)OC(C)(C)C` [6a], the “Exp. LogIC50” value under setting [1] is on record as -0.38. Under setting [2], the IC50 is 2.4 ± 0.03 µM.

`CC(C)[C@@H](N[C@@H]1c2cc(C#N)ccc2OC(C)(C)[C@H]1O)C(=O)OC(C)(C)C` [10a]: the “Exp. LogIC50” value under setting [1] is -0.66. Further, under setting [2], the IC50 was determined as 4.62 ± 0.31 µM.

For the molecule `CC(C)[C@@H](CO)N(C)[C@@H]1c2cc(C#N)ccc2OC(C)(C)[C@H]1O` [20a], the “Exp. LogIC50” value under setting [1] is -0.74. In addition, under setting [2], the IC50 came to 5.46 ± 0.24 µM.

As for `CC(C)[C@@H](C(=O)OC(C)(C)C)N(C)[C@H]1c2cc(C#N)ccc2OC(C)(C)[C@@H]1O` [9b], the “factor more active than corresponding unsubstituted analogs 6a and 6b” value was found to be 2. In addition, the “Exp. LogIC50” value under setting [1] is -0.13. Further, the IC50 under setting [2] turned out to be 1.35 ± 0.003 µM.

As to `C[C@H]1C(=O)O[C@H]2[C@@H](c3cc(C#N)ccc3OC2(C)C)N1C` [15a], the “Exp. LogIC50” value under setting [1] is given as -1.68. In addition, the IC50 under setting [2] turned out to be 47.8 ± 0.91 µM.

On to `CC(C)[C@@H]1C(=O)O[C@H]2[C@@H](c3cc(C#N)ccc3OC2(C)C)N1C` [18a], for which the IC50 runs as follows: under setting [3], 77.6 µM; under setting [2], 79.27 ± 0.05 µM.

Consider `CC(C)[C@H]1C(=O)O[C@H]2[C@@H](c3cc(C#N)ccc3OC2(C)C)N1C` [16a], for which the IC50 is 47.9 µM under setting [3] and 47.51 ± 0.4 µM under setting [2].

Turning to `CC(C)[C@@H](N[C@H]1c2cc(C#N)ccc2OC(C)(C)[C@@H]1O)C(=O)OC(C)(C)C` [10b], the “Exp. LogIC50” value under setting [1] was -0.13. Besides, under setting [2], the IC50 came out at 1.34 ± 0.08 µM.

As for `CC1(C)Oc2ccc(C#N)cc2[C@@H]2N[C@@H](Cc3ccccc3)C(=O)O[C@H]21` [14b], the “Exp. LogIC50” value under setting [1] is -2.41. Besides, under setting [2], the IC50 is 259.78 ± 0.06 µM.

As for `CC(C)(C)OC(=O)[C@H](Cc1ccccc1)N[C@@H]1c2cc(C#N)ccc2OC(C)(C)[C@H]1O` [7a], under setting [1], the “Exp. LogIC50” value is 0.26. For the same molecule, the IC50 under setting [2] came to 0.55 ± 0.02 µM.

Turning to `C[C@@H]1N[C@H]2c3cc(C#N)ccc3OC(C)(C)[C@@H]2OC1=O` [12b], the “Exp. LogIC50” value under setting [1] is recorded as -1.88. The IC50 under setting [2] amounted to 76.89 ± 0.06 µM.

Regarding `CC(C)[C@H]1CO[C@@H]2[C@@H](N1)c1cc(C#N)ccc1OC2(C)C` [21b], the IC50 was 43.7 µM under setting [3] and 44 ± 0.03 µM under setting [2].

For the molecule `CC(C)[C@@H](CO)N[C@H]1c2cc(C#N)ccc2OC(C)(C)[C@@H]1O` [19b], under setting [1], the “Exp. LogIC50” value is given as -2.01. Also, under setting [2], the IC50 was 102.6 ± 0.15 µM.

In the case of `CC(C)[C@H](N[C@H]1c2cc(C#N)ccc2OC(C)(C)[C@@H]1O)C(=O)OC(C)(C)C` [6b], the “Exp. LogIC50” value under setting [1] is reported as -0.43. The IC50 under setting [2] was 2.7 ± 0.02 µM.

In the case of `CC(C)[C@H]1C(=O)O[C@@H]2[C@H](c3cc(C#N)ccc3OC2(C)C)N1C` [16b], the IC50 under setting [3] was 16.6 µM and the IC50 under setting [2] came out at 16.7 ± 0.2 µM.

As to `C[C@H](N[C@@H]1c2cc(C#N)ccc2OC(C)(C)[C@H]1O)C(=O)OC(C)(C)C` [5a], the “Exp. LogIC50” value under setting [1] is reported as -1.47. Also, the IC50 under setting [2] was 29.85 ± 0.01 µM.

Consider `CC(C)(C)OC(=O)[C@H](Cc1ccccc1)N[C@H]1c2cc(C#N)ccc2OC(C)(C)[C@@H]1O` [7b], for which, under setting [1], the “Exp. LogIC50” value turned out to be 0.11. Also, the IC50 under setting [2] was 0.77 ± 0.04 µM.

With `CC(C)[C@@H](CO)N[C@@H]1c2cc(C#N)ccc2OC(C)(C)[C@H]1O` [19a], under setting [1], the “Exp. LogIC50” value was -1.73. Moreover, the IC50 under setting [2] came to 54.05 ± 0.31 µM.

As to `CC(C)[C@H](C(=O)OC(C)(C)C)N(C)[C@@H]1c2cc(C#N)ccc2OC(C)(C)[C@H]1O` [11a], the “Exp. LogIC50” value under setting [1] was -0.004. Also, under setting [2], the IC50 was 1.01 ± 0.02 µM.

For the molecule `CC(C)[C@@H]1C(=O)O[C@@H]2[C@H](c3cc(C#N)ccc3OC2(C)C)N1C` [18b], the IC50 under setting [3] is 27.5 µM and the IC50 under setting [2] was determined as 27.84 ± 0.02 µM.

Turning to `CC(C)[C@H]1N[C@H]2c3cc(C#N)ccc3OC(C)(C)[C@@H]2OC1=O` [17b], the IC50 is 9.55 µM under setting [3] and 9.63 ± 0.08 µM under setting [2].

Regarding `C[C@H]1C(=O)O[C@@H]2[C@H](c3cc(C#N)ccc3OC2(C)C)N1C` [15b], the “Exp. LogIC50” value under setting [1] is reported as -1.46. Also, the IC50 under setting [2] turned out to be 28.93 ± 0.15 µM.

Consider `C[C@H](N[C@H]1c2cc(C#N)ccc2OC(C)(C)[C@@H]1O)C(=O)OC(C)(C)C` [5b], for which the “Exp. LogIC50” value under setting [1] is on record as -1.16. Also, under setting [2], the IC50 came out at 14.55 ± 0.05 µM.

Take `CC(C)[C@@H](CCl)N(C)[C@H]1c2cc(C#N)ccc2OC(C)(C)[C@@H]1O` [22b]: the “Exp. LogIC50” value under setting [1] is listed as -1.65. Besides, under setting [2], the IC50 came to 45.17 ± 0.05 µM.

`CC1(C)Oc2ccc(C#N)cc2[C@H]2N[C@@H](Cc3ccccc3)C(=O)O[C@@H]21` [14a]: the “Exp. LogIC50” value under setting [1] is -0.42. Further, the IC50 under setting [2] was determined as 2.68 ± 0.18 µM. Besides, the “more active than diastereomer 14b” value (ratio of P-gp inhibitory potency (IC50), 14a versus 14b) is recorded as “two orders of magnitude more active”.

As for `CC(C)[C@H](C(=O)OC(C)(C)C)N(C)[C@H]1c2cc(C#N)ccc2OC(C)(C)[C@@H]1O` [11b], under setting [1], the “Exp. LogIC50” value amounted to 0.005. Moreover, the IC50 under setting [2] amounted to 1 ± 0.05 µM.

As for `CC(C)[C@@H](C(=O)OC(C)(C)C)N(C)[C@@H]1c2cc(C#N)ccc2OC(C)(C)[C@H]1O` [9a], the “factor more active than corresponding unsubstituted analogs 6a and 6b” value is listed as 2. For the same molecule, the “Exp. LogIC50” value under setting [1] worked out at 0.02. Besides, under setting [2], the IC50 came out at 0.96 ± 0.06 µM.

For `CC(C)[C@@H](CO)N(C)[C@H]1c2cc(C#N)ccc2OC(C)(C)[C@@H]1O` [20b], under setting [1], the “Exp. LogIC50” value is -0.83. Further, the IC50 under setting [2] was 6.84 ± 0.15 µM.

Regarding `C[C@@H](C(=O)OC(C)(C)C)N(C)[C@@H]1c2cc(C#N)ccc2OC(C)(C)[C@H]1O` [8a], the “Exp. LogIC50” value under setting [1] is -0.60. Further, the IC50 under setting [2] was determined as 3.96 ± 0.06 µM.
